Measured values from ChEMBL document CHEMBL1134816, “Synthesis of 7,8-disubstituted benzolactam-V8 and its binding to protein kinase C” (Bioorg Med Chem Lett, 2001).

Columns and labels:
[1] = molecular target: Protein kinase C alpha type (Homo sapiens, UniProt P17252); assay: Displacement phorbol 12,13-dibutyrate(PDBU) binding from recombinant Protein kinase C alpha
[2] = molecular target: T1, Protein kinase C epsilon type (Homo sapiens, UniProt Q02156); assay: Binding affinity for protein kinase C epsilon
T1 sequence (Q02156 whole entry): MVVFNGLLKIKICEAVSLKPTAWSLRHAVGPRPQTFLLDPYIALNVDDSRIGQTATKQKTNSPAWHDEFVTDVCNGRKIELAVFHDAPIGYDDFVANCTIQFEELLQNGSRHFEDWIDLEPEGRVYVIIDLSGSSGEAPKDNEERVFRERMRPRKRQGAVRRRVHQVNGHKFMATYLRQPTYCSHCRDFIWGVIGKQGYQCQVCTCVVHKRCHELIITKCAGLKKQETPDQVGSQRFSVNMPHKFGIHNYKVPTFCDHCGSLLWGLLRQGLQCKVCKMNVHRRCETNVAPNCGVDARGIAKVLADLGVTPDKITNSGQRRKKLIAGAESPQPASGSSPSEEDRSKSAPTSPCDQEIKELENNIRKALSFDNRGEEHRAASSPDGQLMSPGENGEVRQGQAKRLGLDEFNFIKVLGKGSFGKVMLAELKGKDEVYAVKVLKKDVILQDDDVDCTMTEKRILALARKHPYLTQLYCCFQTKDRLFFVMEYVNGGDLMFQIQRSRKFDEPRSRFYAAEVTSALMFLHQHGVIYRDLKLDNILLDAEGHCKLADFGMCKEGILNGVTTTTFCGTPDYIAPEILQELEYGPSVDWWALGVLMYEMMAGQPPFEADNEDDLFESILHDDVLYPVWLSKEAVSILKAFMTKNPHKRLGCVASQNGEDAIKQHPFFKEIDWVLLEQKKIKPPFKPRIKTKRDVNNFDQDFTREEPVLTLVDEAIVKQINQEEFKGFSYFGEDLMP

[3] = molecular target: Protein kinase C delta type (Homo sapiens, UniProt Q05655); assay: Binding affinity for protein kinase C delta
Protein kinase C delta type, sequence (Q05655 whole entry): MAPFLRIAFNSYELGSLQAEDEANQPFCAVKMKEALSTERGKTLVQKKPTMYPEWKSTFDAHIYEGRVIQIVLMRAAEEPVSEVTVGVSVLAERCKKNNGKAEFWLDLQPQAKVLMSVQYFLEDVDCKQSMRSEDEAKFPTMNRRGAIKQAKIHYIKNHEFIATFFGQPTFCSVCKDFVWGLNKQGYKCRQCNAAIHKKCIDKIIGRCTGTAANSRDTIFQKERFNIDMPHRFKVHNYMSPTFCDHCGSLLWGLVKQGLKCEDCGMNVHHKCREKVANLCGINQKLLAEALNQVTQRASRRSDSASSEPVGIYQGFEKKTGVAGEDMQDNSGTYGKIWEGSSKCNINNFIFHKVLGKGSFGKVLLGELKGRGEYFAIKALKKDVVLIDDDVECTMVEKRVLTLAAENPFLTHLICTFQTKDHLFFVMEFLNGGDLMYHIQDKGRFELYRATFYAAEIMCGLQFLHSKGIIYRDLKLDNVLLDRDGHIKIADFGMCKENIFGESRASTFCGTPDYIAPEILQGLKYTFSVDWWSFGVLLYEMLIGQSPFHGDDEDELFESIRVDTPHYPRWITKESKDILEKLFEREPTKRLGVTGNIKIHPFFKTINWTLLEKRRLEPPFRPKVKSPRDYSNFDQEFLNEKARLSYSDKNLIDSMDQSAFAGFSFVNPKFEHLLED

| Ki [1] [nM] | Ki [2] [nM] | Ki [3] [nM] | Structure (SMILES) |
| --- | --- | --- | --- |
| 7160 | – | – | COc1cccc2c1C[C@@H](CO)NC(=O)[C@H](C(C)C)N2C |
| 45.6 | 121 | 91.1 | CCCCCCCCC#Cc1ccc2c(c1OC)C[C@@H](CO)NC(=O)[C@H](C(C)C)N2C |
